≈ marks a conversion by molar mass, not a printed value. Where a name gives a salt, the structure may show the parent alone. Read-outs that look alike come from different tables or passages of the source. Marks after values point to notes of the source that are not given here.
How the values were obtained:
[1] = Stability study (influencing factors, HPLC purity); type: physicochemical; settings: for stability under light / Purity Day 12 under light: 5000Lux; for Purity Day 12 under high temperature / Purity Day 12 under light / Purity Day 0 / Purity Day 12 under high humidity: HPLC; for Purity Day 12 under high temperature: 60° C.; for Purity Day 12 under high humidity: RH80%
Excerpt: Carebastine (Comparative Example 2, Comparative Example 2′), carebastine potassium salt (Example 1), and carebastine p-toluenesulfonate (Example 3, Example 5).
Three samples of each of carebastine (Comparative Example 2), refined carebastine (Comparative Example 2′), carebastine potassium salt (Example 1), carebastine p-toluenesulfonate (Example 3), and carebastine p-toluenesulfonate (Example 5) were weighed and placed in weighing flasks. The samples of each group were placed under high temperature (60° C.), high humidity (RH80%), and light (5000Lux) conditions, and the samples were taken for testing after 12 days. Note: The refined carebastine of Comparative Example 2′ can be prepared by column chromatography of Comparative Example 2 using common technical means in the related art.
Detection method: An appropriate amount of each of the samples was weighed accurately, and is dissolved in acetonitrile and quantitatively diluted to a solution containing about 0.08 mg per 1 ml. The detection was carried out using high performance liquid chromatography, octadecylsilane bonded silica gel as a filler, and water-acetonitrile (1:1) as a mobile phase, under a detection wavelength of 256 nm, column temperature of 35° C., and injection volume of 10 μL. Each sample solution was injected into the liquid chromatograph and the chromatogram was recorded.

[2] = Solubility test in different media; type: physicochemical
Experimental: Carebastine (Comparative Example 2) and carebastine p-toluenesulfonate (Example 3).
Hydrochloric acid solution with a pH of 1.2:7.65 ml of hydrochloric acid was diluted to 1000 ml with water, and shaken evenly to obtain the solution.
Phosphate buffer with a pH of 4.5:3.40278 g of KH2PO4 was weighed, dissolved in water and diluted to 500 ml, and shaken evenly to obtain the solution.
Phosphate buffer with a pH of 6.8:3.40353 g of KH2PO4 and 0.4428 g of sodium hydroxide were weighed, dissolved in water and diluted to 500 ml, and shaken evenly to obtain the solution.
Appropriate amounts of the compounds of Example 3 and Comparative Example 2 were respectively placed in conical flasks containing 50 ml of water, 50 ml of a hydrochloric acid solution with a pH of 1.2, 50 ml of a phosphate buffer with a pH of 4.5, and 50 ml of a phosphate buffer with a pH of 6.8, respectively, so that the solutions were supersaturated and insoluble matter was clearly visible.
The conical flasks were placed in a thermostatic water bath at 37° C. and an oscillation rate of 120 r/min. Samples were taken at 24 h, 48 h, and 72 h, and detected by liquid chromatography.

Hygroscopicity study = type: physicochemical; settings: 25° C.±1° C., relative humidity 80%, 24 hours
Experimental: The preparation of carebastine hydrochloride refers to the description of patent U.S. Pat. No. 6,340,761, and the purity is 99% or more. […] (2) An appropriate amount of the sample was spread flat in the weighing bottle. […] (3) The weighing bottle was opened and placed with the lid under the above constant temperature and humidity conditions for 24 hours. (4) The lid was put on the weighing bottle and the weight was accurately weighed (m3).

[3] = tested on: histamine-induced shock in guinea pigs; assay: Histamine-induced shock test in guinea pigs; type: in vivo; settings: gavage, equimolar to 1.00 mg/kg ebastine, histamine phosphate i.v. one hour after administration, n = 10; for Time of accelerated respiration: x ± s
Experimental: One hour after administration, 0.125 wt. % histamine phosphate saline solution was injected intravenously into lateral sides of hind paws of the guinea pigs at 2 ml/kg. After the injection was completed within 10 s, a stopwatch was used immediately to observe the latency period for the guinea pigs to develop accelerated respiration and collapse with convulsions.

KM mice = settings: single intragastric; for Mortality rate of mice / Number of surviving mice: 14 days observation; for Number of surviving mice: 10 mice per group; for abnormalities during observation period and in gross anatomical observation: low dose, mice, 14 days
Experimental: All drugs were administered by intragastric administration, and the blank control group was administered with an equal volume of 0.5% CMC-Na solution. All animals were fasted for 12 hours before administration, but were allowed to drink water freely.
After administration, the mice were kept and observed for 14 days, and the toxic reactions (such as death) of the mice were observed and recorded every day. After the observation period, all surviving animals were dissected to observe whether there were obvious lesions in each organ.

[4] = high dose (equimolar to 5 g/kg ebastine)
[5] = low dose (equimolar to 2.5 g/kg ebastine)

Row | Structure (SMILES) | Purity Day 12 under high temperature ([1]; 12 days) | Purity Day 12 under light ([1]; 12 days) | Purity Day 0 [1] | Purity Day 12 under high humidity ([1]; 12 days) | Characteristic description (hygroscopicity) (Hygroscopicity study) | Weight gain Percentage (Hygroscopicity study) | Mortality rate [3] | Time of convulsion and collapse [3] | Time of accelerated respiration [3] | other results
1 | CC(C)(C(=O)O)c1ccc(C(=O)CCCN2CCC(OC(c3ccccc3)c3ccccc3)CC2)cc1 [Comparative Example 2, 2-(4-(4-(4-(diphenylmethoxy)piperidin-1-yl)butyryl)phenyl)-2-methylpropanoic acid] | 97.22% | 87.28% | 97.78% | 97.41% | Hygroscopic | 6% |  |  |  | stability under light ([1]; 12 days): extremely unstable; solubility ([2]; Hydrochloric acid solution with a pH of 1.2, 37° C., 24 h): 0.46 mg/mL (≈ 921 µM); solubility ([2]; Hydrochloric acid solution with a pH of 1.2, 37° C., 48 h): 0.54 mg/mL (≈ 1080 µM); solubility ([2]; Hydrochloric acid solution with a pH of 1.2, 37° C., 72 h): 0.39 mg/mL (≈ 781 µM); solubility ([2]; Phosphate buffer with a pH of 4.5, 37° C., 24 h): 0.20 mg/mL (≈ 400 µM); solubility ([2]; Phosphate buffer with a pH of 4.5, 37° C., 48 h): 0.19 mg/mL (≈ 380 µM); solubility ([2]; Phosphate buffer with a pH of 4.5, 37° C., 72 h): 0.20 mg/mL (≈ 400 µM); solubility ([2]; Phosphate buffer with a pH of 6.8, 37° C., 24 h): 0.03 mg/mL (≈ 60 µM); solubility ([2]; Phosphate buffer with a pH of 6.8, 37° C., 48 h): 0.03 mg/mL (≈ 60 µM); solubility ([2]; Phosphate buffer with a pH of 6.8, 37° C., 72 h): 0.03 mg/mL (≈ 60 µM); solubility ([2]; Water, 37° C., 24 h): 0.72 mg/mL (≈ 1440 µM); solubility ([2]; Water, 37° C., 48 h): 0.52 mg/mL (≈ 1040 µM); solubility ([2]; Water, 37° C., 72 h): 0.52 mg/mL (≈ 1040 µM)
2 | CC(C)(C(=O)O)c1ccc(C(=O)CCCN2CCC(OC(c3ccccc3)c3ccccc3)CC2)cc1 [Comparative Example 2′, carebastine] | 99.45% | 88.11% | 99.65% | 99.25% |  |  |  |  |  | 
3 | CC(C)(C(=O)O)c1ccc(C(=O)CCCN2CCC(OC(c3ccccc3)c3ccccc3)CC2)cc1 [Comparative Example 3, carebastine hydrochloride] |  |  |  |  |  |  |  |  |  | solubility [2]: 0.08 mg/mL; solubility ([2]; pH 6.8): 0.01 mg/mL; Characteristic description (hygroscopicity) (Hygroscopicity study; hydrochloride): Extremely hygroscopic; Weight gain Percentage (Hygroscopicity study; hydrochloride): 15.9%
4 | CC(C)(C(=O)[O-])c1ccc(C(=O)CCCN2CCC(OC(c3ccccc3)c3ccccc3)CC2)cc1.[K+] [Example 1, potassium 2-(4-(4-(4-(diphenylmethoxy)piperidin-1-yl)butyryl)phenyl)-2-methylpropanoate] | 98.23% | 97.48% | 98.42% | 98.38% | No or almost no hygroscopicity | −0.2% | 0/10 | >600*^▴ s | 294 ± 24.42 s | stability under light ([1]; 12 days): slightly reduced; Mortality rate of mice (KM mice; [4]): 20%; Number of surviving mice (KM mice; [4]): 8; Mortality rate of mice (KM mice; [5]): 0; Number of surviving mice (KM mice; [5]): 10; abnormalities during observation period and in gross anatomical observation (KM mice): no obvious abnormalities were observed
5 | CC(C)(C(=O)[O-])c1ccc(C(=O)CCCN2CCC(OC(c3ccccc3)c3ccccc3)CC2)cc1.[Na+] [Example 2, sodium 2-(4-(4-(4-(diphenylmethoxy)piperidin-1-yl)butyryl)phenyl)-2-methylpropanoate] |  |  |  |  |  |  | 0/10 | >600*^▴ s | 275 ± 31.41 s | 
6 | CC(C)(C(=O)O)c1ccc(C(=O)CCCN2CCC(OC(c3ccccc3)c3ccccc3)CC2)cc1.Cc1ccc(S(=O)(=O)O)cc1 [Example 3, 2-(4-(4-(4-(diphenylmethoxy)piperidin-1-yl)butyryl)phenyl)-2-methylpropanoic acid p-toluenesulfonate] |  |  |  |  | Slightly hygroscopic | 0.3% | 0/10 | >600*^▴ s | 351 ± 38.16 s | stability under high temperature, high humidity and light conditions ([1]; 12 days): stable; Purity Day 12 under high temperature ([1]; 12 days, p-toluenesulfonate): 99.94%; Purity Day 12 under light ([1]; 12 days, p-toluenesulfonate): 99.91%; Purity Day 0 ([1]; p-toluenesulfonate): 99.99%; Purity Day 12 under high humidity ([1]; 12 days, p-toluenesulfonate): 99.98%; Mortality rate of mice (KM mice; [4]): 10%; Number of surviving mice (KM mice; [4]): 9; Mortality rate of mice (KM mice; [5]): 0; Number of surviving mice (KM mice; [5]): 10; abnormalities during observation period and in gross anatomical observation (KM mice): no obvious abnormalities were observed
7 | CC(C)(C(=O)O)c1ccc(C(=O)CCCN2CCC(OC(c3ccccc3)c3ccccc3)CC2)cc1.CS(=O)(=O)O [Example 4, 2-(4-(4-(4-(diphenylmethoxy)piperidin-1-yl)butyryl)phenyl)-2-methylpropanoic acid methanesulfonate] |  |  |  |  |  |  | 0/10 | >600*^▴ s | 256 ± 24.05 s | 
8 | CC(C)(C(=O)O)c1ccc(C(=O)CCCN2CCC(OC(c3ccccc3)c3ccccc3)CC2)cc1.Cc1ccc(S(=O)(=O)O)cc1 [Example 5, carebastine p-toluenesulfonate] | 97.90% | 97.80% | 97.90% | 97.89% |  |  |  |  |  | 

From US20250326720A1, “CAREBASTINE SALT AND USE OF SAME” (priority 2022, published 2025)
